Laboratory results published in US9034792B2, “Antifungal compositions” (DSM IP ASSETS B.V., priority 2011, dated 2015).
Several values for one entry are separate records, joined by “and”; a condition that tells them apart may be missing. Equal entries are not always repeated.

What was measured:
Type in all cases: in vivo
Penicillium italicum = assay: Treatment of wounded mandarins inoculated with Penicillium italicum; conditions: 20° C., 250 ppm natamycin
Experimental: Ten fresh, organic mandarins were used per treatment. The peel of each mandarin was wounded once using a cork borer according to the method described by de Lapeyre de Bellaire and Dubois (1987). Subsequently, each wound was inoculated with 10 μl of a Penicillium italicum suspension containing 1×10^4 of spores/ml. […] The pH of the compositions was 4. A composition without natamycin or fluoxastrobin was used as control.
(§1) The treated mandarins were incubated in a closed box in the dark at 20° C. and assessed on mould growth after 10, 15, 19, 22 and 27 days of incubation. The antifungal activity (in %) of the individual active ingredients was determined by calculating the reduction in mould growth observed on the mandarins treated with the antifungal composition in comparison to the mould growth on the mandarins treated with the control composition. The expected antifungal activity (E in %) of the combined antifungal composition comprising both active ingredients was calculated according to the Colby equation (Colby, 1967): E=X+Y−[(X·Y)/100] wherein X and Y are the observed antifungal activities (in %) of the individual active ingredients X and Y, respectively. If the observed antifungal activity (O in %) of the combination exceeds the expected antifungal activity (E in %) of the combination and the synergy factor O/E is thus >1.0, the combined application of the active ingredients leads to a synergistic antifungal effect.
A composition without natamycin or trifloxystrobin was used as control. The antifungal activity (in %) of the individual and combined active ingredients on mandarins was assessed after 8, 10 and 19 days of incubation according to the method described in Example 9.

Fusarium proliferatum = assay: Treatment of wounded bananas inoculated with Fusarium proliferatum; conditions: 20° C.
Experimental: Four organic, unripe (green) bananas were used per treatment. The peel of each banana was wounded thrice using a cork borer according to the method described by de Lapeyre de Bellaire and Dubois (1987). Subsequently, each wound was inoculated with 15 μl of a Fusarium proliferatum suspension containing 1×10^5 of spores/ml. […] In addition, the antifungal compositions comprised 1.00% (w/w) methylhydroxyethylcellulose (MHEC), 0.40% (w/w) xanthan gum, 0.20% (w/w) anti-foaming agent, 0.30% (w/w) citric acid, 0.39% (w/w) lactic acid and 0.11% (w/w) potassium sorbate. The pH of the compositions was 4. […] The treated, unripe bananas were incubated in a closed box in the dark at 20° C. and a relative air humidity of 95%, which was obtained in the presence of a saturated Na2HPO4 aqueous solution. During the first 10 days of incubation, a ripe (yellow) banana was included in the closed box to elevate the ethylene gas level and thus induce ripening of the treated, unripe bananas.
The expected antifungal activity (E in %) of the combined antifungal composition comprising both active ingredients was calculated according to the Colby equation (Colby, 1967): E=X+Y−[(X·Y)/100] wherein X and Y are the observed antifungal activities (in %) of the individual active ingredients X and Y, respectively. If the observed antifungal activity (O in %) of the combination exceeds the expected antifungal activity (E in %) of the combination and the synergy factor O/E is thus >1.0, the combined application of the active ingredients leads to a synergistic antifungal effect.
The degree of mould growth on the banana wounds was assessed according to the two methods described in Example 3.

Botrytis cinerea = assay: Treatment of wounded strawberries inoculated with Botrytis cinerea; conditions: 20° C.
Experimental: Twelve fresh, organic strawberries were used per treatment. Each strawberry was wounded with a 0.5 mm long cut and each wound was inoculated with 10 μl of a Botrytis cinerea suspension containing 1×10^5 of spores/ml. […] The antifungal composition also comprised 1.00% (w/w) methylhydroxyethylcellulose (MHEC), 0.40% (w/w) xanthan gum, 0.20% (w/w) anti-foaming agent, 0.30% (w/w) citric acid, 0.39% (w/w) lactic acid and 0.11% (w/w) potassium sorbate. The pH of the compositions was 4.
as §1, with “strawberries” for “mandarins”, “4, 5, 7” for “10, 15, 19, 22”, “8” for “27”, “The antifungal activity (in %) of the individual active ingredients was determined by calculating the reduction in mould growth observed on the mandarins treated with the antifungal composition in comparison to the mould growth on the mandarins treated with the control composition.” left out, “effect. […]” for “effect.”

[1] = 10 days, 500 ppm fluoxastrobin or both
[2] = 15 days, 500 ppm fluoxastrobin or both
[3] = 19 days, 500 ppm fluoxastrobin or both
[4] = 22 days, 500 ppm fluoxastrobin or both
[5] = 27 days, 500 ppm fluoxastrobin or both
[6] = 21 days, 500 ppm natamycin, 1000 ppm fluoxastrobin or both
[7] = 27 days, 250 ppm natamycin, 500 ppm fluoxastrobin or both
[8] = 27 days, 500 ppm natamycin, 1000 ppm fluoxastrobin or both
[9] = 3 days, 50 ppm natamycin, 250 ppm trifloxystrobin or both
[10] = 5 days, 50 ppm natamycin, 250 ppm trifloxystrobin or both
[11] = 5 days, 250 ppm natamycin, 500 ppm trifloxystrobin or both
[12] = 5 days, 500 ppm natamycin, 1000 ppm trifloxystrobin or both
[13] = 7 days, 250 ppm natamycin, 500 ppm trifloxystrobin or both
[14] = 7 days, 500 ppm natamycin, 1000 ppm trifloxystrobin or both
[15] = 8 days, 250 ppm natamycin, 500 ppm trifloxystrobin or both
[16] = 8 days, 500 ppm natamycin, 1000 ppm trifloxystrobin or both
[17] = 9 days, 250 ppm natamycin, 500 ppm trifloxystrobin or both
[18] = 8 days, 400 ppm trifloxystrobin or both
[19] = 10 days, 400 ppm trifloxystrobin or both
[20] = 19 days, 400 ppm trifloxystrobin or both
[21] = 27 days, 500 ppm natamycin, 1000 ppm trifloxystrobin or both

Row | Compound | Observed antifungal activity O (%) (Penicillium italicum; [1]) | Observed antifungal activity O (%) (Penicillium italicum; [2]) | Observed antifungal activity O (%) (Penicillium italicum; [3]) | Observed antifungal activity O (%) (Penicillium italicum; [4]) | Observed antifungal activity O (%) (Penicillium italicum; [5]) | Number of moulded wounds/total number of 12 wounds (Fusarium proliferatum; [6]) | Observed antifungal activity O (%) (Fusarium proliferatum; [6]) | Observed antifungal activity O (%) (Fusarium proliferatum; [7]) | Number of moulded wounds/total number of 12 wounds (Fusarium proliferatum; [8]) | Observed antifungal activity O (%) (Fusarium proliferatum; [8]) | Observed antifungal activity O (%) (Botrytis cinerea; [9]) | Observed antifungal activity O (%) (Botrytis cinerea; [10]) | Number of moulded strawberries/total number of 12 strawberries (Botrytis cinerea; [11]) | Number of moulded strawberries/total number of 12 strawberries (Botrytis cinerea; [12]) | Observed antifungal activity O (%) (Botrytis cinerea; [12]) | Observed antifungal activity O (%) (Botrytis cinerea; [13]) | Observed antifungal activity O (%) (Botrytis cinerea; [14]) | Observed antifungal activity O (%) (Botrytis cinerea; [15]) | Observed antifungal activity O (%) (Botrytis cinerea; [16]) | Observed antifungal activity O (%) (Botrytis cinerea; [17]) | further results
1 | CO/N=C(/C1=NOCCO1)c1ccccc1Oc1ncnc(Oc2ccccc2Cl)c1F [Fluoxastrobin, fluoxastrobin] | 28 | 24 | 6 | 4 | 0 | 10 and 10/12 | 42 | 31 | 12 and 12/12 | 7 | – | – | – | – | – | – | – | – | – | – | –
2 | CON=C(C(=O)OC)c1ccccc1CON=C(C)c1cccc(C(F)(F)F)c1 [Trifloxystrobin, trifloxystrobin] | – | – | – | – | – | – | – | – | – | – | 50 | 7 | 12 and 12/12 | 12 and 12/12 | 0 | 0 | 6 | 0 | 6 | 0 | Observed antifungal activity O (%) (Penicillium italicum; [18]): 61%; Observed antifungal activity O (%) (Penicillium italicum; [19]): 42%; Observed antifungal activity O (%) (Penicillium italicum; [20]): 0%; Number of moulded wounds/total number of 12 wounds (Fusarium proliferatum; [21]): 10 and 10/12; Observed antifungal activity O (%) (Fusarium proliferatum; [21]): 75%
3 | natamycin | 54 | 19 | 5 | 5 | 5 | 6 and 6/12 | 78 | 4 | 12 and 12/12 | 63 | 64 | 17 | 12 and 12/12 | 12 and 12/12 | 31 | 10 | 13 | 2 | 0 | 0 | Observed antifungal activity O (%) (Penicillium italicum; [18]): 83%; Observed antifungal activity O (%) (Penicillium italicum; [19]): 54%; Observed antifungal activity O (%) (Penicillium italicum; [20]): 5%; Number of moulded wounds/total number of 12 wounds (Fusarium proliferatum; [21]): 12 and 12/12; Observed antifungal activity O (%) (Fusarium proliferatum; [21]): 63%
